Data on 20 compounds can be found in patent US9504747B2, “Lipids and lipid compositions for the delivery of active agents” (Novartis AG, priority 2013, dated 2016).

Format in all cases: physicochemical
The nature of series [1]: Polydispersity index (PDI) of the lipid nanoparticle (dynamic light scattering). Particulars: Table 4, FVII siRNA LNP. From the text: The lipid nanoparticles (LNPs) were formed by mixing equal volumes of lipids dissolved in alcohol with siRNA dissolved in a citrate buffer by an impinging jet process. […] The siRNA to total lipid ratio is approximately 0.05 (wt/wt). Where a LNP formulation contains four lipid components, the molar ratios correspond to the type of lipid as it appears in the first four columns of the table, in the order that they appear. The ratio of the lipids ranges from 20 to 70 mole percent for the cationic lipid with a target of 40-60, the mole percent of helper lipid ranges from 20 to 70 with a target of 30 to 50, the mole percent of neutral lipid ranges from 0-30, the mole percent of PEG lipid has a range from 1 to 6 with a target of 2 to 5. The concentration of siRNA solution ranges from 0.7 to 1.0 mg/mL with a target of 0.8 to 0.9 mg/mL in a sodium citrate: sodium chloride buffer pH 4-6, with a target of 4.5-5.5. The LNPs are formed by mixing equal volumes of lipid solution in ethanol with siRNA dissolved in a citrate buffer by an impinging jet process through a mixing device with ID ranging from 0.25 to 2.0 mm at a flow rate from 10 to 640 mL/min. The mixed LNP solution is held at room temperature for 0-24 hrs prior to a dilution step. […] The final product is sterile filtered and stored at 4° C. Unless indicated otherwise, all PDIs referred to herein are the PDI of the fully formed nanoparticle, as measured by dynamic light scattering on a Malvern Zetasizer. The nanoparticle sample was diluted in phosphate buffered saline (PBS) so that the count rate was approximately 200-400 kcts. The data is presented in Tables 4 and 5 as a weighted average of the intensity measure.

Series [2] is described as follows: pKa measurement of the cationic lipid (TNS fluorescence vs pH). Particulars: probe TNS (fluorescent probe), Table 4; pKa of the cationic lipid of formula (I). The method, then:
Unless indicated otherwise, all pKa's referred to herein were measured at standard temperature and pressure. Also, unless otherwise indicated, all references to pKa are references to pKa measured using the following technique. 2 mM solution of lipid in ethanol was prepared by weighing the lipid and then dissolving it in ethanol. 0.3 mM solution of fluorescent probe TNS in ethanol:methanol 9:1 was prepared by first making 3 mM solution of TNS in methanol and then diluting to 0.3 mM with ethanol. An aqueous buffer containing 200 mM sodium phosphate dibasic and 100 mM citric acid was prepared. […] Using the Hamilton Microlab Star high throughput liquid handler and Hamilton run control software Software, 7.5 uL of probe/lipid mix were added to 242.5 uL of buffer in a 1 mL 96 well plate (model NUNC 260252, […] Nunc International). This was done with all twelve buffers. After mixing in 1 mL 96 well plate, 100 uL of each probe/lipid/buffer mixture was transferred to a 250 uL black with clear bottom 96 well plate (model COSTAR 3904, Corning). The fluorescence measurements are carried out on the SpectraMax M5 spectrophotometer using software SoftMax pro 5.2 and following parameters: After the measurement, the background fluorescence value of an empty well on the 96 well plate was subtracted from each probe/lipid/buffer mixture. The fluorescence intensity values were then normalized to the value at lowest pH. The normalized fluorescence intensity vs. pH chart was then plotted in the Microsoft Excel software. The twelve points were connected with a smooth line. The point on the line at which the normalized fluorescence intensity was equal to 0.5 was found. […] The pKa determined using this method is precise to about 0.1 pKa units.

Series [3] is described as follows: Particle size of the lipid nanoparticle (dynamic light scattering, Malvern Zetasizer). Particulars: Table 4, FVII siRNA LNP, Z-average. From the text:
The lipid nanoparticles have a size of about 1 to about 2,500 nm, about 1 to about 1,500 nm, about 1 to about 1,000 nm, in a sub-embodiment about 50 to about 600 nm, in a sub-embodiment about 50 to about 400 nm, in a sub-embodiment about 50 to about 250 nm, and in a sub-embodiment about 50 to about 150 nm. Unless indicated otherwise, all sizes referred to herein are the average sizes (diameters) of the fully formed nanoparticle, as measured by dynamic light scattering on a Malvern Zetasizer. The nanoparticle sample is diluted in phosphate buffered saline (PBS) so that the count rate is approximately 200-400 kcts. The data is presented as a weighted average of the intensity measure. The lipid nanoparticles (LNPs) were formed by mixing equal volumes of lipids dissolved in alcohol with siRNA dissolved in a citrate buffer by an impinging jet process. […] The siRNA to total lipid ratio is approximately 0.05 (wt/wt). Where a LNP formulation contains four lipid components, the molar ratios correspond to the type of lipid as it appears in the first four columns of the table, in the order that they appear. The ratio of the lipids ranges from 20 to 70 mole percent for the cationic lipid with a target of 40-60, the mole percent of helper lipid ranges from 20 to 70 with a target of 30 to 50, the mole percent of neutral lipid ranges from 0-30, the mole percent of PEG lipid has a range from 1 to 6 with a target of 2 to 5. The concentration of siRNA solution ranges from 0.7 to 1.0 mg/mL with a target of 0.8 to 0.9 mg/mL in a sodium citrate: sodium chloride buffer pH 4-6, with a target of 4.5-5.5. The LNPs are formed by mixing equal volumes of lipid solution in ethanol with siRNA dissolved in a citrate buffer by an impinging jet process through a mixing device with ID ranging from 0.25 to 2.0 mm at a flow rate from 10 to 640 mL/min. The mixed LNP solution is held at room temperature for 0-24 hrs prior to a dilution step. […] The final product is sterile filtered and stored at 4° C. Unless indicated otherwise, all particle size measurements referred to in Tables 4 and 5 are the Z-average particle size of the fully formed nanoparticle, as measured by dynamic light scattering on a Malvern Zetasizer. The nanoparticle sample was diluted in phosphate buffered saline (PBS) so that the count rate is approximately 200-400 kcts.

Setting [4] is: Chol/DSPC/stealth lipid S010, 45/44/9/2.
The mark [5] stands for this setting: Chol/DSPC/stealth lipid S010, molar ratio 45/44/9/2.
[6] abbreviates: Chol/DSPC/stealth lipid PEG-DMG, 45/44/9/2.
Setting [7] is: Chol/DSPC/stealth lipid PEG-DMG, molar ratio 45/44/9/2.

Compound `CCCCC/C=C\C/C=C\CCCCCCCC(=O)OCCCCOc1cc(CN2CC(O)C2)cc(OCCCCOC(=O)CCCCCCC/C=C\C/C=C\CCCCC)c1` [Example 49] had a PDI in series [1] (setting [4]) of 0.046. Moreover, in series [2], the pKa (in general, the pH at which an ionisable group is half protonated) was 5.99. Moreover, the “Size (nm)” value in series [3] (setting [5]) amounted to 111.1 nm.
The like results for `CCC/C=C\CCCCCCC(=O)OCCCCCCOc1cc(CN(C)C)cc(OCCCCCCOC(=O)CCCCCC/C=C\CCC)c1` [Example 50] were, in that order, 0.056, 5.92 and 126 nm.
`CCCCCCCCCCCC(=O)OCCCCCCCCOc1cc(CN(C)C)cc(OCCCCCCCCOC(=O)CCCCCCCCCCC)c1` [Example 53]: the PDI was 0.1 in series [1] (setting [6]) and 0.079 in series [1] (setting [4]). The same compound yielded a pKa in series [2] of 6.03. Further, the “Size (nm)” value in series [3] (setting [7]) is on record as 129.1 nm; in series [3] (setting [5]) it was 113.3 nm.
For `CCCCC/C=C\C/C=C\CCCCCCCC(=O)OCCCCOc1cc(CN(CC)CC)cc(OCCCCOC(=O)CCCCCCC/C=C\C/C=C\CCCCC)c1C` [Example 55] the same measures were 0.10, 0.043, 6.37, 101.9 nm and 106.9 nm.
On to `CCCCCCCC/C=C\CCCCCCCC(=O)OCCCCOc1cc(CN(C)C)cc(OCCCCOC(=O)CCCCCCC/C=C\CCCCCCCC)c1` [Example 60], for which the PDI in series [1] (setting [4]) stood at 0.098. Further, in series [2], the pKa came out at 6.21. In series [3] (setting [5]), the “Size (nm)” value is given as 95.55 nm.
For `CCCCCCCCCCCCCC(=O)OCCCCOc1cc(CN(C)C)cc(OCCCCOC(=O)CCCCCCCCCCCCC)c1` [Example 61] the same measures were 0.076, 5.82 and 81.79 nm.
As for `CC/C=C\C/C=C\C/C=C\CCCCCCCC(=O)OCCCCOc1cc(CN(C)C)cc(OCCCCOC(=O)CCCCCCC/C=C\C/C=C\C/C=C\CC)c1` [Example 62], in series [1] (setting [4]), the PDI turned out to be 0.066. The compound further displayed a pKa in series [2] of 5.9. In addition, the “Size (nm)” value in series [3] (setting [5]) worked out at 102.5 nm.
`CCCCC/C=C\C/C=C\CCCCCCCC(=O)OCCCC(=O)OCc1cc(COC(=O)CCCOC(=O)CCCCCCC/C=C\C/C=C\CCCCC)cc(CN(C)C)c1` [Example 82] returned a PDI in series [1] (setting [4]) of 0.064. The same compound had a pKa in series [2] of 6.03. The “Size (nm)” value in series [3] (setting [5]) was 119.2 nm.
As to `CCCCCCCC(=O)OCCCCCCCCCC(=O)OCc1cc(COC(=O)CCCCCCCCCOC(=O)CCCCCCC)cc(CN(C)C)c1` [Example 86], the PDI in series [1] (setting [6]) worked out at 0.05; in series [1] (setting [4]), 0.058. This compound also showed a pKa in series [2] of 5.84. Further, the “Size (nm)” value in series [3] (setting [7]) was determined as 128.7 nm; in series [3] (setting [5]), 120.3 nm.
Turning to `CCCCCCCC(=O)OCCCCCCCC(=O)OCc1cc(COC(=O)CCCCCCCOC(=O)CCCCCCC)cc(CN(C)C)c1` [Example 87], the PDI in series [1] (setting [4]) was 0.089. In series [2], this compound showed a pKa of 6.07. The “Size (nm)” value in series [3] (setting [5]) is recorded as 159.2 nm.
For `CCCCCCCCCC(=O)OCCCCCC(=O)OCc1cc(COC(=O)CCCCCOC(=O)CCCCCCCCC)cc(CN(C)C)c1` [Example 88] the same measures were 0.046, 5.99 and 152.4 nm.
`CCCCCCCC(=O)OC[C@@H](CCOc1cc(CN(C)C)cc(OCC[C@@H](COC(=O)CCCCCCC)OC(=O)CCCCCCC)c1)OC(=O)CCCCCCC` [Example 92] displayed a PDI in series [1] (setting [4]) of 0.065. Moreover, in series [2], the pKa came to 5.92. Moreover, the “Size (nm)” value in series [3] (setting [5]) is 117.3 nm.
For `CCCCCCCC(=O)OC[C@H](CCOc1cc(CN(C)C)cc(OCC[C@@H](COC(=O)CCCCCCC)OC(=O)CCCCCCC)c1)OC(=O)CCCCCCC` [Example 93], in series [1] (setting [4]), the PDI turned out to be 0.071. The compound also registered a pKa in series [2] of 6. In series [3] (setting [5]), the “Size (nm)” value was 121.5 nm.
`CCCCCCCC(=O)OC[C@@H](CCOc1cc(CN(C)C)cc(OCC[C@H](COC(=O)CCCCCCC)OC(=O)CCCCCCC)c1)OC(=O)CCCCCCC` [Example 94] returned a PDI in series [1] (setting [4]) of 0.073. The same compound yielded a pKa in series [2] of 6.16. In addition, in series [3] (setting [5]), the “Size (nm)” value was determined as 116.4 nm.
For `CCCCCCCCCC(=O)OCCCC(=O)OCCCOc1cc(CN(C)C)cc(OCCCOC(=O)CCCOC(=O)CCCCCCCCC)c1` [Example 96] the same measures were 0.14, 5.71 and 197.3 nm.
On to `CCCCCCCC(=O)OCCCCCCCCCCOc1cc(CN(CC)CC)cc(OCCCCCCCCCCOC(=O)CCCCCCC)c1OCCCCCCCCCCOC(=O)CCCCCCC` [Example 100], for which the PDI in series [1] (setting [6]) was 0.07; in series [1] (setting [4]) it was 0.121. Besides, the pKa in series [2] came to 6.17. Also, the “Size (nm)” value in series [3] (setting [7]) was 106.4 nm; in series [3] (setting [5]) it was 105.9 nm.
In series [1] (setting [4]), `CCCCCCCCCOC(=O)OCCCCCC(=O)OCc1cc(COC(=O)CCCCCOC(=O)OCCCCCCCCC)cc(CN(C)C)c1` [Example 106] gave a PDI of 0.083. In series [2], the pKa amounted to 6.04. In addition, in series [3] (setting [5]), the “Size (nm)” value amounted to 149.3 nm.
The like results for `CCCCCCCC(=O)OCC(CCCCOc1cc(CN(C)C)cc(OCCCCC(COC(=O)CCCCCCC)COC(=O)CCCCCCC)c1)COC(=O)CCCCCCC` [Example 110] were, in that order, 0.071, 5.66 and 183.3 nm.
The compound `CCCCCCCC(=O)OCC(COC(=O)CCCCCCC)COc1cc(CN(C)C)cc(OCC(COC(=O)CCCCCCC)COC(=O)CCCCCCC)c1` [Example 111] showed a PDI in series [1] (setting [4]) of 0.048. Further, in series [2], the pKa was 6.27. Further, the “Size (nm)” value in series [3] (setting [5]) is 161.9 nm.
As for `CCCCC/C=C\C/C=C\CCCCCCCC(=O)OCCCCOc1cc(CN2CCCC2)cc(OCCCCOC(=O)CCCCCCC/C=C\C/C=C\CCCCC)c1` [Example 112], the PDI in series [1] (setting [6]) is 0.1. The same compound returned a pKa in series [2] of 6.08. For the same compound, in series [3] (setting [7]), the “Size (nm)” value stood at 96.1 nm.
